Data on six compounds can be found in publication PMC11594534, “Antimicrobial Peptide Pro10-1D Exhibits Anti-Allergic Activity: A Promising Therapeutic Candidate” (International Journal of Molecular Sciences, 2024).

Square brackets hold non-standard residues; d marks the D form. Peptide text beside a SMILES is read from it.

Data set [1] has as its system BMMCs. Nature of the data set: Ionomycin-induced degranulation of BMMCs. The format is cell-based, mouse. The settings on record: BMMCs without IgE sensitization, 30 min pre-incubation, 1 μM ionomycin 15 min; two independent experiments. How it is done:
(§1) Figure 5 Pro10-1D suppresses the activity of Lyn and Fyn kinases in vitro. (A) BMMCs (3.0 × 10^5 cells/well) were pre-incubated with Pro10-1D or PP2 for 30 min and then stimulated with 1 μM ionomycin or 300 nM thapsigargin for 15 min. (B,C) KinaseProfiler radiometric protein kinase assays were performed with Lyn and Fyn kinase. The protocols used for the kinase assay are detailed in the Section 4 “Materials and Methods”. (A–C) The data are presented as the mean ± SEM from two independent experiments. Statistical significance is indicated by an asterisk; ** p < 0.01.
(§2) RBL-2H3 cells (2.0 × 10^5 cells/well) were sensitized overnight with 20 ng/mL DNP-specific IgE in the culture medium. BMMCs (3.0 × 10^5 cells/well) were sensitized with 100 ng/mL DNP-specific IgE for 4 h in the culture medium. […] The reaction was stopped by the addition of 250 μL of a 0.1 M carbonate buffer, and absorbance was measured at 405 nm. The degranulation values were calculated as the ratio of β-hexosaminidase activity secreted into the supernatant to the total β-hexosaminidase activity from both the supernatant and cell extract.

The subject of data set [2] is BMMCs. Nature of the data set: Thapsigargin-induced degranulation of BMMCs. It is filed as cell-based, mouse. The settings on record: BMMCs without IgE sensitization, 30 min pre-incubation, 300 nM thapsigargin 15 min; two independent experiments. The protocol:
as §1, §2

The subject of data set [3] is BMMCs. As to the kind of experiment: Cell viability (CCK-8), BMMCs. It is filed as cell-based, mouse. As to conditions: 4 h, CCK-8, absorbance 450 nm, up to highest experimental concentration. How it is done: (§3) Figure 1 Pro10-1D inhibits IgE–Ag-induced degranulation in MCs. (A) RBL-2H3 cells and BMMCs were first sensitized with DNP-specific IgE and then treated with Pro10-1D or PP2 for 30 min, followed by the stimulation with DNP-HSA for 15 min. (B) IgE-sensitized RBL-2H3 cells were incubated with or without Pro10-1D for 30 min and then washed three times, followed by the stimulation with the antigen for 15 min. (C) The effects of Pro10-1D on cell viability were evaluated by incubating both RBL-2H3 cells and BMMCs with Pro10-1D for 4 h and measuring the absorbance at 450 nm using the CCK-8 kit. (A,B) The extent of degranulation from the MCs was determined by measuring the ratio of β-hexosaminidase activity released outside the cells to the total β-hexosaminidase activity. The data are presented as the mean ± SEM from three independent experiments, each performed in triplicate. Statistical significance is indicated by an asterisk; * p < 0.05, ** p < 0.01. PP2 is a general Src family kinase inhibitor.
(§4) RBL-2H3 cells (2.0 × 10^4 cells/well) were seeded in 96-well plates and incubated for 12 h, after which they were treated with Pro10-1D for 4 h. […] Cell viability was assessed using the Cell Counting Kit-8 (CCK-8) (Dojindo Laboratories, Kumamoto, Japan), following the manufacturer’s protocol. Absorbance was measured at 450 nm to determine cell viability.

The target of data set [4] is T1, Lyn (Mus musculus, UniProt P25911).
T1 construct: purchased Eurofins (KinaseProfiler service, Celle-Lévescault, France)
Nature of the data set: KinaseProfiler radiometric kinase assay, Lyn. It is filed as biochemical. As to conditions: Km concentration for ATP, [γ-33P]-ATP, Poly (Glu, Tyr) 4:1, 0.1 mg/mL, Tris pH 7.5, 40 min, room temperature, two independent experiments. The protocol: as §1
(§5) A radiometric Lyn, Fyn kinase assay was conducted at Eurofins (Celle-Lévescault, France) using KinaseProfiler^TM. The assays were carried out at the Km concentration for ATP in dose response for each kinase. Briefly, the Lyn (mouse) assay was incubated using a mixture of 50 mM Tris pH 7.5, 0.1 mM EGTA, 0.1 mM Na3VO4, 0.1% β-Mercaptoethanol, 0.1 mg/mL Poly (Glu, Tyr) 4:1, 10 mM Magnesium acetate, and [γ^33P]-ATP. The Fyn (human) assay was incubated with a mixture of 50 mM Tris pH 7.5, 0.1 mM EGTA, 0.1 mM Na3VO4, 250 µM KVEKIGEGTYGVVYK (Cdc2 peptide), 10 mM Magnesium acetate, and [γ^33P]-ATP. The activity of Lyn and Fyn was initiated by the addition of the Mg/ATP mix, and the reactions were incubated for 40 min at room temperature. The reaction was halted by adding 0.5% phosphoric acid. […]

For data set [5], the system named is bone marrow-derived mast cells (BMMC cells). As to the kind of experiment: Antigen-induced MC degranulation, β-hexosaminidase assay, BMMCs. It is filed as cell-based, mouse. As to conditions: BMMCs (3.0 × 10^5 cells/well), DNP-specific IgE 100 ng/mL 4 h, Pro10-1D 30 min, then DNP-HSA 50 ng/mL 15 min, 37 °C, Tyrode buffer pH 7.4, absorbance 405 nm, three independent experiments in triplicate, read-out: IC50, inhibition of antigen-induced degranulation. How it is done: as §3, with “Statistical significance is indicated by an asterisk; * p < 0.05, ** p < 0.01. PP2 is a general Src family kinase inhibitor.” left out
(§6) RBL-2H3 cells were obtained from the American Type Culture Collection (Manassas, VA, USA) and cultured in a complete minimal essential medium (MEM) supplemented with L-glutamine […], streptomycin (100 μg/mL), and 15% fetal bovine serum at 37 °C in a CO2-enriched environment. […] After 4 to 5 weeks of culture, the purity of BMMCs was assessed using flow cytometric analysis, focusing on FcεRIα and c-Kit expression as markers of mast cell maturation. […]

Data set [6] relates to RBL-2H3 cells. Nature of the data set: Cell viability (CCK-8), RBL-2H3. As to conditions: RBL-2H3, 4 h, CCK-8, absorbance 450 nm, up to highest experimental concentration. The format is cell-based, rat. How it is done: as §3, §4
For data set [7], the target named is T2, Fyn (Homo sapiens, UniProt P06241).
T2 construct: purchased Eurofins (KinaseProfiler service, Celle-Lévescault, France)
Nature of the data set: KinaseProfiler radiometric kinase assay, Fyn. It is filed as biochemical. As to conditions: Km concentration for ATP, [γ-33P]-ATP, 250 µM Cdc2 peptide, Tris pH 7.5, 40 min, room temperature, two independent experiments. The protocol:
as §1, §5

Data set [8] has as its system rat basophilic leukemia (RBL)-2H3 cells. Nature of the data set: Antigen-induced MC degranulation, β-hexosaminidase assay, RBL-2H3. It is filed as cell-based. The settings on record: RBL-2H3 (2.0 × 10^5 cells/well), DNP-specific IgE 20 ng/mL overnight, Pro10-1D 30 min, then DNP-HSA 25 ng/mL 15 min, 37 °C, Siraganian buffer pH 7.2, absorbance 405 nm, three independent experiments in triplicate, read-out: IC50, inhibition of antigen-induced degranulation. The protocol: as §3, with “Statistical significance is indicated by an asterisk; * p < 0.05, ** p < 0.01. PP2 is a general Src family kinase inhibitor.” left out
as §6

The subject of data set [9] is mouse macrophage RAW264.7 cells. As to conditions: cited from earlier work. The text has this:
In this study, we utilized Pro10-1D, a 10-meric peptide developed previously by adding a D-arginine residue at the N terminal of Pro9-3D, an enantiomeric form of Pro9-3 [17].

In data set [10] the test system is NF-κB and p38 MAPK in MCs. As to conditions: IgE-independent stimulation; cited from earlier work. The text has this:
MCs play a pivotal role in the late-phase reaction following early-phase activation triggered by Ag stimulation. During the late-phase response, MCs produce and secrete a range of cytokines and chemokines, which further intensify the inflammatory cascade initiated in the early response, leading to the recruitment and activation of various immune cells. The late-phase response of MC activation is instrumental in sustaining and exacerbating allergic symptoms, such as bronchoconstriction and edema. Suppressing MC-mediated late-phase responses, therefore, can help prevent the ...

Data set [11] deals with TLR ligands. As to conditions: cited from earlier work. The text has this:
(§7) AMPs are recognized for their antibacterial activities as well as their immunomodulatory activities. The mechanism for their immunomodulatory activity includes the regulation of inflammatory or anti-inflammatory cytokines and the induction of chemoattractants. […] LL-37, produced by neutrophils, neutralize ...

The subject of data set [12] is T cells, B cells, and pDC cells. As to conditions: cited from earlier work.
From the text: as §7

Data set [13] relates to inflammatory cell influx into bronchoalveolar lavage fluid. As to conditions: allergic asthma, intranasal application; cited from earlier work. From the text:
AMPs are small, naturally occurring antimicrobial peptides. In addition to their antimicrobial function, AMPs also play a role in regulating the host’s innate immune system. AMPs typically exert effects that inhibit the growth or induce the death of bacteria, fungi, and parasites. Unlike conventional antibiotics, most AMPs employ a distinct mode of action for their antibacterial activity, targeting the pathogen’s membrane. These unique mechanisms make AMPs promising candidates for the development of next-generation antibiotics. By August 2020, the antimicrobial peptide database c ...

The subject of data set [14] is E. coli-induced sepsis. As to conditions: cited from earlier work.
From the text: as §7

The subject of data set [15] is TLR4-NFκB signaling pathway, LPS-TLR4/MD-2. As to conditions: competitive interference with the LPS-TLR4/MD-2 interaction; cited from earlier work.
From the text: as §7

T1 sequence (P25911 whole entry): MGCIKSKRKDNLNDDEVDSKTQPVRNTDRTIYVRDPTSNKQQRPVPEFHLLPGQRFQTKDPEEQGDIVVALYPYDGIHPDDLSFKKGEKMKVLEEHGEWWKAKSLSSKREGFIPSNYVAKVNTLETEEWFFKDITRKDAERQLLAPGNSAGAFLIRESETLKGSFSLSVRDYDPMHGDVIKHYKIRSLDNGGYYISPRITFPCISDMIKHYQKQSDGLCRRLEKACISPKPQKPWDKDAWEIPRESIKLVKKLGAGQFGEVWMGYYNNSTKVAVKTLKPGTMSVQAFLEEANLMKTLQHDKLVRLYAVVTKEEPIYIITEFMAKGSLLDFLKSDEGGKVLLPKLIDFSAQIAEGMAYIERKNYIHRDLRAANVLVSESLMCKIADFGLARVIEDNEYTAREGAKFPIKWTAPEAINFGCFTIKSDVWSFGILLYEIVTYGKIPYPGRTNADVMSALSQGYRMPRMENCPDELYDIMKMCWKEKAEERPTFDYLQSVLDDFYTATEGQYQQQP
T2 sequence (P06241 whole entry): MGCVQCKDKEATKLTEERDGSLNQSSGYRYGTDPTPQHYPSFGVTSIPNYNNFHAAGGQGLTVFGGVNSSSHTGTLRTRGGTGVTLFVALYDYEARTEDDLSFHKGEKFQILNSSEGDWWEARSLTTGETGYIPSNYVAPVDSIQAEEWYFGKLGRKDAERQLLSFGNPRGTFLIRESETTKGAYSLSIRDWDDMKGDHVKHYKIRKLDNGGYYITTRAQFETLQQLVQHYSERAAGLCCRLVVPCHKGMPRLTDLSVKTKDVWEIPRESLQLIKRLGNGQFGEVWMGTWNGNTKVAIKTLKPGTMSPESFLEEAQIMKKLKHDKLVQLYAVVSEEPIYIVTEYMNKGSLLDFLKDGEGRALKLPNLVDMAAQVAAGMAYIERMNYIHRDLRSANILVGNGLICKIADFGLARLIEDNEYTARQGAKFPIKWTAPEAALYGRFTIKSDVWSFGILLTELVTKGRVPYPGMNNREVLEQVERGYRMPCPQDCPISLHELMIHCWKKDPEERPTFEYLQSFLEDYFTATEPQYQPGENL

As to `CC(C)(C)n1nc(-c2ccc(Cl)cc2)c2c(N)ncnc21` [PP2, 4-amino-5-(4-chlorophenyl)-7-(dimethylethyl)pyrazolo[3,4-d]pyrimidine], the “inhibition of ionomycin-induced degranulation” value in data set [1] is on record as “much weaker inhibitory effect on thapsigargin or ionomycin-induced degranulation compared to its inhibitory effect on antigen-induced degranulation”. Besides, the “inhibition of thapsigargin-induced degranulation” value in data set [2] was “much weaker inhibitory effect on thapsigargin or ionomycin-induced degranulation compared to its inhibitory effect on antigen-induced degranulation”.
Take `CC[C@@H](C)[C@@H](NC(=O)[C@@H](C)NC(=O)[C@@H](CC(C)C)NC(=O)[C@@H](Cc1c[nH]c2ccccc12)NC(=O)[C@@H](CC(C)C)NC(=O)[C@@H](CCCNC(=N)N)NC(=O)[C@H](N)CCCNC(=N)N)C(=O)N[C@H](Cc1c[nH]c2ccccc12)C(=O)N[C@H](CCCNC(=N)N)C(=O)N[C@H](CCCNC(=N)N)C(N)=O` [Pro10-1D] (H-[dR][dR][dL][dW][dL][dA][dI][dW][dR][dR]-NH2): the “cellular toxicity / cell viability” value in [3] is reported as “did not exhibit any signs of cellular toxicity, even at the highest experimental concentration”; in data set [6], “did not exhibit any signs of cellular toxicity, even at the highest experimental concentration”. Besides, the half-inhibitory concentration (IC50) in [4] was ~1.5 µM; in [5] it was ~2.7 µM; in [7], ~22.6 µM; in [8], ~11.6 µM. In addition, the “toxicity to RAW264.7 cells” value in [9] is recorded as “non-toxic”.
Regarding `O=C(CO)NCCCOc1cccc(CN2CCCCC2)c1` [roxatidine], the “release of pro-inflammatory cytokines; phosphorylation of NF-κB and p38 MAPK” value in data set [10] is “attenuate the release of pro-inflammatory cytokines by inhibiting the phosphorylation of NF-κB and p38 MAPK”.
As for LL-37, the “effect on pro-inflammatory activity of TLR ligands” value in data set [11] is “neutralizes the pro-inflammatory activity of TLR ligands”. In addition, the IL-10 expression entry in data set [12] is “induces IL-10 expression”.
With “hBD2: human β-defensin-2 (GIGDPVTCLKSGAICHPVFCPRRYKQIGTCGLPGTKCCKKP; UniProt O15263 24-64, looked up)”, the “inflammatory cell influx into bronchoalveolar lavage fluid” value in data set [13] is “reduce inflammatory cell influx into bronchoalveolar lavage fluid”.
Regarding papiliocin, the “effect on E. coli-induced sepsis” value in data set [14] is on record as “alleviates the impact of E. coli-induced sepsis”. Further, in [15], the “inhibition of TLR4-NFκB signaling pathway” value is “inhibiting the TLR4-NFκB signaling pathway”.
